Source: US8124788B2, “Spirocyclic cyclohexane compounds with analgesic activity” (Gruenenthal GmbH, priority 2006, dated 2012)
Structures can show the parent of a compound that is named as a salt.

Key:
Serotonin reuptake = target: T1, Serotonin reuptake (Rattus norvegicus, UniProt P31652); assay: Inhibition of serotonin (5HT) reuptake in rat brain synaptosomes; type: biochemical
T1 construct: synaptosomes are freshly isolated from areas of the rat brain; from tissue
Experimental: (§1) In order to be able to carry out these in vitro studies, synaptosomes are freshly isolated from areas of the rat brain. In each case a so-called “P2” fraction prepared in accordance with the instruction of Gray and Whittaker (E. G. Gray and V. P. Whittaker (1962) J. Anat. 76, 79-88) is prepared. For the NA uptake, these vesicular particles are isolated from the hypothalamus of male rat brains.
(§2) A detailed description of the method can be found in the literature (M. Ch. Frink, H.-H. Hennies, W. Englberger, M. Haurand and B. Wilffert (1996) Arzneim.-Forsch./Drug Res. 46 (III), 11, 1029-1036).

human μ opiate receptor = target: T2, human μ opiate receptor (Homo sapiens, UniProt P35372); assay: Affinity for the human μ opiate receptor ([3H]-naloxone displacement, CHO-K1 membrane preparation, SPA); type: binding; conditions: for μ opioid receptor [1 μM], % inhibition / inhibition at 1 µM: 1 μM test substance, displacement of [3H]-naloxone; for inhibition at 1 µM: read-out: μ opioid receptor [1 μM], % inhibition; for Ki: Cheng-Prusoff conversion from IC50, read-out: μ opioid receptor, Ki; for μ opioid receptor [1 μmol], % inhibition: compounds prepared via automated synthesis, single measurements at a test concentration of 1 μM
T2 construct: purchased PerkinElmer Life Sciences, Zaventem, Belgium RB-HOM; host or cells: CHO-K1 cells (recombinant expression)
T2 sequence (P35372 whole entry): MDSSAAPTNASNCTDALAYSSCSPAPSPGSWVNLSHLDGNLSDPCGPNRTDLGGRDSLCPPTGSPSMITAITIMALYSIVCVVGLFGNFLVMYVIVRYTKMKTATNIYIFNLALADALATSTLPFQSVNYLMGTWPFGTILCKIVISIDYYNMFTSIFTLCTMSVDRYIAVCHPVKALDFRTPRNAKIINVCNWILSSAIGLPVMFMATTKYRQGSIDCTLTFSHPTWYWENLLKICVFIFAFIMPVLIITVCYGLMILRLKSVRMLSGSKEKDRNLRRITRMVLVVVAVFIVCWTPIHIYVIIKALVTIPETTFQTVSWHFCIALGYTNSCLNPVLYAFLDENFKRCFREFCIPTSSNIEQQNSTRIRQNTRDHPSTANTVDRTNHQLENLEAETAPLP
How it was run: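 CHO-K1 membranes expressing human μ receptor (15-40 μg protein/250 μl) were incubated 90 min at room temperature with 1 nmol/l [³H]-naloxone and WGA-SPA beads in 50 mmol/l Tris-HCl with 0.06% BSA; 100 μmol/l naloxone defined nonspecific binding. Percent displacement measured at 1 μmol/l; IC50 converted to Ki via Cheng-Prusoff.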

Noradrenaline reuptake = target: T3, Noradrenaline reuptake (Rattus norvegicus, UniProt Q63380); assay: Inhibition of noradrenaline (NA) reuptake in rat brain synaptosomes; type: biochemical; conditions: synaptosomes from rat hypothalamus
T3 construct: synaptosomes are freshly isolated from areas of the rat brain; from tissue; host or cells: P2 synaptosome fraction from the hypothalamus of male rat brains
T3 sequence (Q63380 1-617): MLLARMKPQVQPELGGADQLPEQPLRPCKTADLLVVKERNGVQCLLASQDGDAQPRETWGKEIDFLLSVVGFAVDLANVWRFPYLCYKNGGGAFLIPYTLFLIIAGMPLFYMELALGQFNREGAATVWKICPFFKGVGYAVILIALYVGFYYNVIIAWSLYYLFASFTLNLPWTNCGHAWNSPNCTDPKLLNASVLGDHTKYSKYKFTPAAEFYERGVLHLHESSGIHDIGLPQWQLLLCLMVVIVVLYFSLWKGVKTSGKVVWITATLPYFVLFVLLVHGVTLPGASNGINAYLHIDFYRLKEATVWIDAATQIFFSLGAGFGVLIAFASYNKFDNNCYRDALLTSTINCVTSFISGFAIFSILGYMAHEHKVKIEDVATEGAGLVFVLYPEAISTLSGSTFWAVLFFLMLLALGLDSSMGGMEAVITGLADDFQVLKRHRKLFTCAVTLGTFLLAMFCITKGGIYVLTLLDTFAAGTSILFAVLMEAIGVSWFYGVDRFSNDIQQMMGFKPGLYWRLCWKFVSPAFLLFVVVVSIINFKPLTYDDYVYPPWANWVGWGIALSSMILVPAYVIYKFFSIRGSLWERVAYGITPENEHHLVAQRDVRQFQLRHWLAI
Experimental: as §1, §2

[1] = test system: phenylquinone-induced writhing in mice; assay: Phenylquinone writhing; type: in vivo; conditions: 10 mg/kg intravenously, male NMRI mice
Experimental: The analgesic activity was investigated in the phenylquinone-induced writhing in mice (modified in accordance with I. C. Hendershot und J. Forsaith (1959) J. Pharmacol. Exp. Ther. 125, 237-240), Male NMRI mice weighing from 25 to 30 g were used for this. Groups of 10 animals per substance dose received 0.3 ml/mouse of a 0.02% strength aqueous solution of phenylquinone (phenylbenzoquinone, Sigma, Deisenhofen; preparation of the solution with the addition of 5% ethanol and storage in a water bath at 45° C.) administered intraperitoneally 10 minutes after intravenous administration of the test substances. The animals were placed individually in observation cages. The number of pain-induced stretching movements (so-called writhing reactions=straightening of the body with stretching of the rear extremities) was counted by means of a push-button counter 5 to 20 minutes after the administration of phenylquinone. Animals which receive only 5% strength Cremophor solution were also run as a control. All the substances were tested in the standard dosage of 10 mg/kg. The percentage inhibition (% inhibition) of the writhing reaction by a substance was calculated according to the following formula: […]

T1 sequence (P31652 whole entry): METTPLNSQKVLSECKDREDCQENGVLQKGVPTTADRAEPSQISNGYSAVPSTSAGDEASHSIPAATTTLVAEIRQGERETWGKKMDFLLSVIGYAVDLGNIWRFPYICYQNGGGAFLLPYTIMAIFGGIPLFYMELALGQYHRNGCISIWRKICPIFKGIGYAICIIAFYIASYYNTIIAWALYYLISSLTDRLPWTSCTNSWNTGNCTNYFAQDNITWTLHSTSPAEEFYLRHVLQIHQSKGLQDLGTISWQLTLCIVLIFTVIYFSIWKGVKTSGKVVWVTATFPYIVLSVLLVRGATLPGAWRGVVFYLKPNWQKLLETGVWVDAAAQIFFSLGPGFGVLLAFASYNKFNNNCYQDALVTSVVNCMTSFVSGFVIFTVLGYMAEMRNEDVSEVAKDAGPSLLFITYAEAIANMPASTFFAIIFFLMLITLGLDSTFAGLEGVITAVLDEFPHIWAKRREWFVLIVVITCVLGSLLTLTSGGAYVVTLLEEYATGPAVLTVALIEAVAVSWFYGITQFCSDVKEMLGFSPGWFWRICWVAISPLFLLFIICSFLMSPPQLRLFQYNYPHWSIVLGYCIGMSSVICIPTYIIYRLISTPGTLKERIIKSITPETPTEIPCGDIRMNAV

| Compound | Serotonin reuptake, % inhibition [10 μM] (Serotonin reuptake) | μ opioid receptor [1 μM], % inhibition (human μ opiate receptor) | inhibition at 10 µM (Serotonin reuptake) | inhibition at 1 µM (human μ opiate receptor) | Ki (human μ opiate receptor) | also measured |
| --- | --- | --- | --- | --- | --- | --- |
| CC1Cc2c([nH]c3ccc(F)cc23)C2(CCC(C(CCc3ccccc3)N(C)C)CC2)O1 (stereo not shown) [Compound 54, 6-Fluoro-3-methyl-1,1-[3-(dimethylamino-(phenylethyl)-methyl) -pentamethylene]-1,3,4,9-tetrahydropyrano[3,4-b]indole] | 55% | 21% |  |  |  |  |
| CN(C)C(c1ccc(F)cc1)C1CCC2(CC1)OCCc1c2[nH]c2ccc(F)cc12 (stereo not shown) [Compound 35, 6-Fluoro-1,1-[3-(dimethylamino-(4-fluorophenyl)-methyl) -pentamethylene]-1,3,4,9-tetrahydropyrano[3,4-b]indole] |  |  | 55% | 98% | 67 nM | inhibition at 10 µM (Noradrenaline reuptake): 50% |
| CN(C)C(c1cccc(F)c1)C1CCC2(CC1)OCCc1c2[nH]c2ccccc12 (stereo not shown) [Compound 26, 1,1-[3-(Dimethylamino-(3-fluorophenyl)-methyl)-pentamethylene]-1,3,4,9-tetrahydro-pyrano[3,4-b]indole Citrate] |  |  | 59% | 94% | 33 nM | inhibition at 10 µM (Noradrenaline reuptake): 49% |
| CN(C)C(c1ccccc1)C1CCC2(CC1)OCCc1c2[nH]c2ccc(F)cc12 (stereo not shown) [Compound 37, 6-Fluoro-1,1-[3-(dimethylamino-(phenyl)-methyl)-pentamethylene]-1,3,4,9-tetrahydro-pyrano[3,4-b]indole] |  |  | 68% | 74% | 37 nM |  |
| CC1Cc2c([nH]c3ccc(F)cc23)C2(CCC(C(c3ccc(F)cc3)N(C)C)CC2)O1 (stereo not shown) [Compound 51, 6-Fluoro-3-methyl-1,1-[3-(dimethylamino-(4-fluorophenyl) -methyl)-pentamethylene]-1,3,4,9-tetrahydropyrano[3,4-b]indole] | 39% | 46% |  |  |  |  |
| Cc1ccc2[nH]c3c(c2c1)CC(C)OC31CCC(C(c2cccc(F)c2)N(C)C)CC1 (stereo not shown) [Compound 41, 3,6-Dimethyl-1,1-[3-(dimethylamino-(3-fluorophenyl)-methyl) -pentamethylene]-1,3,4,9-tetrahydropyrano[3,4-b]indole] |  |  |  | 88% | 300 nM | % inhibition of the writhing reaction (dosage in mg/kg intravenously) [1]: 40 (10) % |
| CN(C)C(c1cccs1)C1CCC2(CC1)OCCc1c2[nH]c2ccccc12 (stereo not shown) [Compound 29, 1,1-[3-(Dimethylamino-(thiophen-2-yl)-methyl)-pentamethylene]-1,3,4,9-tetrahydro-pyrano[3,4-b]indole] |  |  | 45% | 99% | 15 nM | % inhibition of the writhing reaction (dosage in mg/kg intravenously) [1]: 73 (10) % |
| Cc1ccc2[nH]c3c(c2c1)CC(C)OC31CCC(C(c2ccc(Cl)cc2)N(C)C)CC1 (stereo not shown) [Compound 44, 3,6-Dimethyl-1,1-[3-(dimethylamino-(4-chlorophenyl)-methyl) -pentamethylene]-1,3,4,9-tetrahydropyrano[3,4-b]indole] |  |  |  | 72% | 490 nM | % inhibition of the writhing reaction (dosage in mg/kg intravenously) [1]: 48 (10) % |
| CN(C)C(c1ccc(F)cc1)C1CCC2(CC1)OCCc1c2[nH]c2ccccc12 (stereo not shown) [Compound 25, 1,1-[3-(Dimethylamino-(4-fluorophenyl)-methyl)-pentamethylene]-1,3,4,9-tetrahydro-pyrano[3,4-b]indole] |  |  | 68% | 86% | 350 nM |  |
| Cc1ccc2[nH]c3c(c2c1)CC(C)OC31CCC(C(c2ccccc2)N(C)C)CC1 (stereo not shown) [Compound 42, 3,6-Dimethyl-1,1-[3-(dimethylamino-(phenyl)-methyl)-pentamethylene]-1,3,4,9-tetrahydropyrano[3,4-b]indole Citrate] |  |  | 64% | 101% | 29 nM |  |
| CN(C)C(c1ccc(Cl)cc1)C1CCC2(CC1)NCCc1c2[nH]c2ccccc12 (stereo not shown) [Compound 22, 1,1-[3-(4-Chlorophenyl-(dimethylamino)-methyl)-pentamethylene]-3,4-dihydro-1H-2,9-diazafluorene] | 76% | 33% |  |  |  |  |
| CN(C)C(c1ccc(Cl)cc1)C1CCC2(CC1)OCCc1c2[nH]c2ccc(F)cc12 (stereo not shown) [Compound 38, 6-Fluoro-1,1-[3-(dimethylamino-(4-chlorophenyl)-methyl)-pentamethylene]-1,3,4,9-tetrahydropyrano[3,4-b]indole] |  |  | 57% | 84% | 260 nM | inhibition at 10 µM (Noradrenaline reuptake): 59% |
| Cc1ccc2[nH]c3c(c2c1)CC(C)OC31CCC(C(c2ccc(F)cc2)N(C)C)CC1 (stereo not shown) [Compound 40, 3,6-Dimethyl-1,1-[3-(dimethylamino-(4-fluorophenyl)-methyl) -pentamethylene]-1,3,4,9-tetrahydropyrano[3,4-b]indole] | 47% | 68% |  |  |  |  |
| CC1Cc2c([nH]c3ccc(F)cc23)C2(CCC(C(c3cccc(F)c3)N(C)C)CC2)O1 (stereo not shown) [Compound 52, 6-Fluoro-3-methyl-1,1-[3-(dimethylamino-(3-fluorophenyl) -methyl)-pentamethylene]-1,3,4,9-tetrahydropyrano[3,4-b]indole] | 68% | 53% |  |  |  |  |
| CN(C)C(CCc1ccccc1)C1CCC2(CC1)OCCc1c2[nH]c2ccccc12 (stereo not shown) [Compound 28, 1,1-[3-(Dimethylamino-(phenylethyl)-methyl)-pentamethylene]-1,3,4,9-tetrahydropyrano[3,4-b]indole] |  |  | 57% | 92% | 110 nM | inhibition at 10 µM (Noradrenaline reuptake): 52% |
| CN(C)C(c1cccs1)C1CCC2(CC1)NCCc1c2[nH]c2ccccc12 (stereo not shown) [Compound 21, 1,1-[3-(Dimethylamino-(thiophen-2-yl)-methyl)-pentamethylene]-3,4-dihydro-1H-2,9-diazafluorene] | 72% | 62% |  |  |  | Noradrenaline reuptake, % inhibition [10 μM] (Noradrenaline reuptake): 50% |
| CC1Cc2c([nH]c3ccc(F)cc23)C2(CCC(C(c3ccccc3)N(C)C)CC2)O1 (stereo not shown) [Compound 53, 6-Fluoro-3-methyl-1,1-[3-(dimethylamino-(phenyl)-methyl) -pentamethylene]-1,3,4,9-tetrahydropyrano[3,4-b]indole] |  |  | 60% | 97% | 82 nM | inhibition at 10 µM (Noradrenaline reuptake): 47% |
| CC(=Cc1ccccc1)C(=O)N1CCc2c([nH]c3ccccc23)C12CCC(C(c1ccccc1)N(C)C)CC2 (stereo not shown) [Compound 58, 1-{1,1-[3-(dimethylamino-phenylmethyl)-pentamethylene]-3,4-dihydro-1H-2,9-diazafluoren-2-yl}-2-methyl-3-phenylprop-2-en-1-one] |  |  |  |  |  | μ opioid receptor [1 μmol], % inhibition (human μ opiate receptor): 50% |
| CN(C)C(c1ccc(Cl)cc1)C1CCC2(CC1)c1[nH]c3ccccc3c1CCN2C(=O)Cc1cccs1 (stereo not shown) [Compound 98, 2-(2-thienylacetyl)-{1,1-[3-(dimethylamino-(4-chlorophenyl)methyl)-pentamethylene]-3,4-dihydro-1H-2,9-diazafluorene}] |  |  |  |  |  | μ opioid receptor [1 μmol], % inhibition (human μ opiate receptor): 21% |
| CN(C)C(c1ccc(F)cc1)C1CCC2(CC1)c1[nH]c3ccccc3c1CCN2C(=O)Cc1ccc(F)cc1 (stereo not shown) [Compound 110, 2-[(4-fluorophenyl)acetyl]-{1,1-[3-(dimethylamino-(4-fluorophenyl)methyl)-pentamethylene]-3,4-dihydro-1H-2,9-diazafluorene}] |  |  |  |  |  | μ opioid receptor [1 μmol], % inhibition (human μ opiate receptor): 14% |
